# Source: ChEMBL document CHEMBL1122903, “Synthesis, in vitro [3H]prazosin displacement, and in vivo activity of 3-aryl-4,5,6,7-tetrahydropyrazolo[4,3-c]pyridines, a new class of antihypertensive agents” (J Med Chem, 1985)
# Values joined by “and” are separate entries in the source; they are usually repeats but may differ in a detail not shown here. Equal values may be shown once.
# How the values were obtained:
# [1] = biological target: T1, Adrenergic receptor alpha-1 (Rattus norvegicus, UniProt P15823+P23944+P43140); experiment: Ability to displace [3H]prazosin from postsynaptic alpha-1 adrenergic receptor of rat in vitro.; format: protein assay
# T1 sequence (P15823 whole entry): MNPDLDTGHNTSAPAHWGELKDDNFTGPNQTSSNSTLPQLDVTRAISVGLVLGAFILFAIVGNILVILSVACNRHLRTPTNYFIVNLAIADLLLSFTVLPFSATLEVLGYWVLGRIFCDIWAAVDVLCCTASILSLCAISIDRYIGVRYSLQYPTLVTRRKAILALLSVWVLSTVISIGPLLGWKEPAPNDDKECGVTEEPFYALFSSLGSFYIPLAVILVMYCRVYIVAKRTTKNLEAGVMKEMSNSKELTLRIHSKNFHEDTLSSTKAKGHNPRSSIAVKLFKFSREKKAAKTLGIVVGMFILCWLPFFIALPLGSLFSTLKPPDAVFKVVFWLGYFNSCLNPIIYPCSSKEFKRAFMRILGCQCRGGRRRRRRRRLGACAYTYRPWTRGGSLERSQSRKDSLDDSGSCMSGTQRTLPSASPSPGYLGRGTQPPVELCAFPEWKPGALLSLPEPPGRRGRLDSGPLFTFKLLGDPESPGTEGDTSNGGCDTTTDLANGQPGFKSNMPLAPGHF
# T1 sequence (P23944 whole entry): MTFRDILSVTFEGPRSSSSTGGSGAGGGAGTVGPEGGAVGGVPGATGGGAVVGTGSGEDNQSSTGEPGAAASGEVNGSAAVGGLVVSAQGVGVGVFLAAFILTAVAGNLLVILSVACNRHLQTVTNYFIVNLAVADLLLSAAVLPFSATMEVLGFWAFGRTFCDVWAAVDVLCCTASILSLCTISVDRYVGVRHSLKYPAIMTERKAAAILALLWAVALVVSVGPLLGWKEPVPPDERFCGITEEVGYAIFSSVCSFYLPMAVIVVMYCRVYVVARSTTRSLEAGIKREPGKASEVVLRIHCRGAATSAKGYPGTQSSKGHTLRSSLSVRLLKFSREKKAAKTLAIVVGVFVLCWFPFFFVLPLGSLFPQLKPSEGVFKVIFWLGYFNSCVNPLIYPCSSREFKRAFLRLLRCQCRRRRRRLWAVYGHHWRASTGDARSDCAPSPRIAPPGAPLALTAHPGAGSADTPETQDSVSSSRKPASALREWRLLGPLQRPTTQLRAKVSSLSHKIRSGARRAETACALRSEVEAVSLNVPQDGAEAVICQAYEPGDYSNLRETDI
# T1 sequence (P43140 whole entry): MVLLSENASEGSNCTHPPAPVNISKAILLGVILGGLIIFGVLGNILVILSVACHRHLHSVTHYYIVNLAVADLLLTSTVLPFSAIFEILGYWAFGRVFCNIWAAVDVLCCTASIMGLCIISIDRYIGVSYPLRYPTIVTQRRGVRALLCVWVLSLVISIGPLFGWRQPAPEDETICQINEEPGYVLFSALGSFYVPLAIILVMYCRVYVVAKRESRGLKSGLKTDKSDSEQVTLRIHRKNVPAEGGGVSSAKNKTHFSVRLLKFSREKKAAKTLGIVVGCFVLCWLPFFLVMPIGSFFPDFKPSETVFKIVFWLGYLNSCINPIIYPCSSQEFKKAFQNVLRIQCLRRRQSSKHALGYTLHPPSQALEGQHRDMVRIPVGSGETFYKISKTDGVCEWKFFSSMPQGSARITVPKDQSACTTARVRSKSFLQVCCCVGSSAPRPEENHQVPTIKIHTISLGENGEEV
# Rattus norvegicus = experiment: Antihypertensive activity on spontaneously hypertensive rats, when administered orally at a dose 15 mg/kg; format: functional; settings: route oral
# Canis familiaris [2] = experiment: Heart rate after 6 hours of oral administration in renal hypertensive dogs at dose 0.3 mg/kg; format: functional, Canis lupus familiaris
# Canis familiaris [3] = experiment: Systolic blood pressure after 8 hr of oral administration in renal hypertensive dogs at dose 0.1 mg/kg; format: functional, Canis lupus familiaris
# Canis familiaris [4] = experiment: Peak effect after 2-4 hours systolic blood pressure after 2 day of oral administration in renal hypertensive dogs at dose 0.3 mg/kg; format: functional, Canis lupus familiaris, Artery
# Canis familiaris [5] = experiment: Peak effect after 2-4 hours systolic blood pressure after 1 days of oral administration in renal hypertensive dogs at dose 0.3 mg/kg; format: functional, Canis lupus familiaris, Artery
# Canis familiaris [6] = experiment: Heart rate after 0 hours of oral administration in renal hypertensive dogs at dose 0.3 mg/kg; format: functional, Canis lupus familiaris
# Canis familiaris [7] = experiment: Heart rate after 8 hours of oral administration in renal hypertensive dogs at dose 0.5 mg/kg; format: functional, Canis lupus familiaris
# Canis familiaris [8] = experiment: Systolic blood pressure after 4 hr of oral administration in renal hypertensive dogs at dose 0.1 mg/kg; format: functional, Canis lupus familiaris
# Canis familiaris [9] = experiment: Systolic blood pressure after 2 hours of oral administration in renal hypertensive dogs at dose 0.3 mg/kg; format: functional, Canis lupus familiaris
# Canis familiaris [10] = experiment: Peak effect after 2-4 hours systolic blood pressure after 7 days of oral administration in renal hypertensive dogs at dose 0.3 mg/kg; format: functional, Canis lupus familiaris, Artery
# Canis familiaris [11] = experiment: Heart rate after 2 hours of oral administration in renal hypertensive dogs at dose 0.5 mg/kg; format: functional, Canis lupus familiaris
# Canis familiaris [12] = experiment: Systolic blood pressure after 4 hr of oral administration in renal hypertensive dogs at dose 0.3 mg/kg; format: functional, Canis lupus familiaris
# Canis familiaris [13] = experiment: Heart rate after 0 hours of oral administration in renal hypertensive dogs at dose 0.1 mg/kg; format: functional, Canis lupus familiaris
# Canis familiaris [14] = experiment: Systolic blood pressure after 8 hr of oral administration in renal hypertensive dogs at dose 0.3 mg/kg; format: functional, Canis lupus familiaris
# Canis familiaris [15] = experiment: Heart rate after 4 hours of oral administration in renal hypertensive dogs at dose 0.1 mg/kg; format: functional, Canis lupus familiaris
# Canis familiaris [16] = experiment: Systolic blood pressure after 2 hours of oral administration in renal hypertensive dogs at dose 0.1 mg/kg; format: functional, Canis lupus familiaris
# Canis familiaris [17] = experiment: Systolic blood pressure after 0 hours of oral administration in renal hypertensive dogs at dose 0.1 mg/kg; format: functional, Canis lupus familiaris
# Canis familiaris [18] = experiment: Heart rate after 4 hours of oral administration in renal hypertensive dogs at dose 0.3 mg/kg; format: functional, Canis lupus familiaris
# Canis familiaris [19] = experiment: Heart rate after 2 hours of oral administration in renal hypertensive dogs at dose 0.3 mg/kg; format: functional, Canis lupus familiaris
# Canis familiaris [20] = experiment: Systolic blood pressure after 6 hr of oral administration in renal hypertensive dogs at dose 0.5 mg/kg; format: functional, Canis lupus familiaris
# Canis familiaris [21] = experiment: Heart rate after 6 hours of oral administration in renal hypertensive dogs at dose 0.1 mg/kg; format: functional, Canis lupus familiaris
# Canis familiaris [22] = experiment: Systolic blood pressure after 0 hours of oral administration in renal hypertensive dogs at dose 0.3 mg/kg; format: functional, Canis lupus familiaris
# Canis familiaris [23] = experiment: Heart rate after 2 hours of oral administration in renal hypertensive dogs at dose 0.1 mg/kg; format: functional, Canis lupus familiaris
# Canis familiaris [24] = experiment: Heart rate after 4 hours of oral administration in renal hypertensive dogs at dose 0.5 mg/kg; format: functional, Canis lupus familiaris
# Canis familiaris [25] = experiment: Systolic blood pressure after 8 hr of oral administration in renal hypertensive dogs at dose 0.5 mg/kg; format: functional, Canis lupus familiaris
# Canis familiaris [26] = experiment: Heart rate after 6 hours of oral administration in renal hypertensive dogs at dose 0.5 mg/kg; format: functional, Canis lupus familiaris
# Canis familiaris [27] = experiment: Heart rate after 8 hours of oral administration in renal hypertensive dogs at dose 0.3 mg/kg; format: functional, Canis lupus familiaris
# Canis familiaris [28] = experiment: Systolic blood pressure after 6 hr of oral administration in renal hypertensive dogs at dose 0.3 mg/kg; format: functional, Canis lupus familiaris
# Canis familiaris [29] = experiment: Heart rate after 8 hours of oral administration in renal hypertensive dogs at dose 0.1 mg/kg; format: functional, Canis lupus familiaris
# Canis familiaris [30] = experiment: Peak effect after 2-4 hours systolic blood pressure after 3 days of oral administration in renal hypertensive dogs at dose 0.3 mg/kg; format: functional, Canis lupus familiaris, Artery
# Canis familiaris [31] = experiment: Systolic blood pressure after 4 hr of oral administration in renal hypertensive dogs at dose 0.5 mg/kg; format: functional, Canis lupus familiaris
# Canis familiaris [32] = experiment: Systolic blood pressure after 6 hr of oral administration in renal hypertensive dogs at dose 0.1 mg/kg; format: functional, Canis lupus familiaris
# Canis familiaris [33] = experiment: Systolic blood pressure after 0 hours of oral administration in renal hypertensive dogs at dose 0.5 mg/kg; format: functional, Canis lupus familiaris
# Canis familiaris [34] = experiment: Systolic blood pressure after 2 hr of oral administration in renal hypertensive dogs at dose 0.5 mg/kg; format: functional, Canis lupus familiaris
# Canis familiaris [35] = experiment: Heart rate after 0 hours of oral administration in renal hypertensive dogs at dose 0.5 mg/kg; format: functional, Canis lupus familiaris
compound,measurement,setting,value
Cl.Clc1ccc(-c2[nH]nc3c2CNCC3)cc1,Ki,[1],145 nM
same,Delta p,Rattus norvegicus,0%
COc1cc2nc(N3CCN(C(=O)c4ccco4)CC3)nc(N)c2cc1OC [PRAZOSIN],Heart rate,Canis familiaris [2],90%
same,Blood pressure,Canis familiaris [3],196 mmHg
same,Blood pressure,Canis familiaris [4],100% and 92%
same,Blood pressure,Canis familiaris [5],96%
same,Heart rate,Canis familiaris [6],110 beats min-1
same,Heart rate,Canis familiaris [7],82 beats min-1
same,Blood pressure,Canis familiaris [8],180 mmHg
same,Blood pressure,Canis familiaris [9],182 mmHg
same,Blood pressure,Canis familiaris [10],100%
same,Heart rate,Canis familiaris [11],94 beats min-1
same,Blood pressure,Canis familiaris [12],160 mmHg
same,Heart rate,Canis familiaris [13],104 beats min-1
same,Blood pressure,Canis familiaris [14],180 mmHg
same,Heart rate,Canis familiaris [15],94%
same,Blood pressure,Canis familiaris [16],186 mmHg
same,Blood pressure,Canis familiaris [17],205 mmHg
same,Heart rate,Canis familiaris [18],100%
same,Heart rate,Canis familiaris [19],114%
same,Blood pressure,Canis familiaris [20],125 mmHg
same,Heart rate,Canis familiaris [21],96%
same,Blood pressure,Canis familiaris [22],202 mmHg
same,Heart rate,Canis familiaris [23],92%
same,Heart rate,Canis familiaris [24],82%
same,Blood pressure,Canis familiaris [25],150 mmHg
same,Heart rate,Canis familiaris [26],78 beats min-1
same,Heart rate,Canis familiaris [27],100%
same,Blood pressure,Canis familiaris [28],165 mmHg
same,Heart rate,Canis familiaris [29],106%
same,Blood pressure,Canis familiaris [30],96%
same,Blood pressure,Canis familiaris [31],125 mmHg
same,Blood pressure,Canis familiaris [32],193 mmHg
same,Blood pressure,Canis familiaris [33],190 mmHg
same,Blood pressure,Canis familiaris [34],135 mmHg
same,Heart rate,Canis familiaris [35],86 beats min-1
